The values that follow come from PubChem BioAssay (NCI).

What all share (assay): NCI-60 cell line screen, 48 h
In experiment [1] the test system is COLO 205 colon.
Experiment [2] has as its system BT-549 breast.
The test system of experiment [3] is UACC-257 melanoma.
In experiment [4] the test system is SNB-75 CNS.
Experiment [5] has as its system PC-3 prostate.
For experiment [6], the system named is NCI-H23 lung.
Experiment [7] deals with OVCAR-3 ovarian.
In experiment [8] the test system is U251 CNS.
Experiment [9] has as its system MCF7 breast.
The test system of experiment [10] is NCI-H226 lung.

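In this assay, cells in 96-well plates receive the compound at five concentrations for 48 hours. Endpoints are linearly interpolated between the surrounding concentrations. Here, GI50 denotes the concentration required for 50% inhibition of growth. TGI: concentration producing complete growth inhibition.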

For `CC(NC(=O)C(N)CC(=O)O)NC(=O)N1CCOCC1` (stereo not drawn), the TGI in experiment [1], in experiment [2], in experiment [3], in [4], in experiment [5] and in experiment [6] was greater than 100 µM throughout. Further, the TGI in experiment [7], in experiment [8], in experiment [9] and in [10] was greater than 100 µM in each case.

`Nc1nc(N)c2nnn(C[C@H]3CC[C@@H](CO)C3)c2n1`: the TGI in [1], in [2], in experiment [3], in experiment [4], in experiment [5] and in experiment [6] was greater than 100 µM in each case. In addition, the TGI in experiment [7], in experiment [8], in experiment [9] and in [10] was greater than 100 µM throughout.

Consider `COc1cc(/C=C/C(=O)N[C@@H]2C(=O)N3[C@@H]2SC(C)(C)[C@@H]3C(=O)O)cc(OC)c1OC`, for which the TGI in experiment [1], in experiment [2], in [3], in [4], in [5] and in [6] was greater than 100 µM in each case. For the same molecule, the TGI in [7], in [8], in [9] and in experiment [10] was greater than 100 µM each time.

With `Fc1cc(-c2ncc(Cl)cc2Cl)c2cccccc1-2`, the TGI in [1], in experiment [2], in [3], in experiment [4], in experiment [5] and in [6] was greater than 100 µM throughout. Moreover, the TGI in [7], in [9] and in experiment [10] was greater than 100 µM each time.

Regarding `CC1=C(C(=O)Nc2ccccc2)C(c2ccc(C)o2)C(C#N)=C(SCc2ccccc2)N1` (stereo not drawn), the TGI in [1], in [2], in experiment [3], in [4], in [5] and in experiment [6] was greater than 100 µM each time. Also, the TGI in [7], in [8], in experiment [9] and in experiment [10] was greater than 100 µM in each case.

As for `COc1cc2c(cc1OC)C(Cc1ccccc1CCCl)=NCC2`, the TGI in [1], in experiment [2], in experiment [3], in [4], in [5] and in experiment [6] was greater than 100 µM throughout. In addition, the TGI in experiment [7], in experiment [8], in experiment [9] and in experiment [10] was greater than 100 µM throughout.

`COc1cc2c3c(n(Cc4ccccc4)c(=O)c2cc1OC)-c1ccccc1C3=O`: the TGI in [1], in experiment [2], in [3], in [4], in experiment [5] and in [6] was greater than 100 µM throughout. For the same molecule, the TGI in experiment [7], in experiment [8], in [9] and in experiment [10] was greater than 100 µM each time.

Consider `O=C(N/N=C\c1ccc([N+](=O)[O-])cc1)c1ccccc1Nc1ccccc1C(=O)N/N=C/c1ccc([N+](=O)[O-])cc1`, for which the TGI in experiment [1], in experiment [2], in [3], in [4], in experiment [5] and in experiment [6] was greater than 100 µM in each case. The TGI in [7], in experiment [8], in experiment [9] and in [10] was greater than 100 µM in each case.

Consider `Cc1ccc([N+](=O)[O-])cc1S(=O)(=O)Nc1ccc(C2=NNC(c3cccs3)C2)cc1` (stereo not drawn), for which the TGI is 35.6 µM in experiment [1]; 83.8 µM in experiment [2]; greater than 100 µM in [3]; greater than 100 µM in experiment [4]; greater than 100 µM in experiment [5]; greater than 100 µM in experiment [6]. The TGI in [7] was 43.2 µM; in [9], 47.8 µM; in experiment [10] it was greater than 100 µM.

As to `Oc1ccc2ccccc2c1N=Nc1ccccn1`, the GI50 is 431 nM in [1]; 3.44 µM in experiment [2]; 2010 nM in experiment [3]; 7.49 µM in experiment [4]; 1760 nM in [5]; 2820 nM in experiment [6]. In addition, the GI50 in [7] was 266 nM; in experiment [8] it was 563 nM; in [9] it was 527 nM; in experiment [10] it was 1940 nM. Further, the TGI is 21.4 µM in experiment [1]; greater than 100 µM in experiment [2]; 8.02 µM in experiment [3]; greater than 86.7 µM in experiment [4]; greater than 100 µM in experiment [5]; greater than 100 µM in [6]. Further, the TGI in [8] is greater than 100 µM; in experiment [9], greater than 100 µM; in experiment [10] it was greater than 87.9 µM.

For the molecule `O=c1c(O)c(-c2cc(O)c(O)cc2O)oc2cc(O)c(C3OC(CO)C(O)C(O)C3O)c(O)c12` (stereo not drawn), the TGI in [2], in [3], in [4], in experiment [5], in experiment [7] and in [8] was greater than 100 µM each time. In addition, the TGI in [9] and in experiment [10] was greater than 100 µM in each case.

For the molecule `Cc1ccc(/C=N/Nc2nncc3ccccc23)s1`, the TGI in experiment [1] was greater than 100 µM; in experiment [2], greater than 100 µM; in [3] it was greater than 100 µM; in [4] it was greater than 75.9 µM; in [5], greater than 100 µM; in [6] it was greater than 100 µM. Further, the TGI in experiment [7], in [8], in [9] and in experiment [10] was greater than 100 µM each time.

On to `CC(=O)N1N=C(N)CC1=O`, for which the TGI in [1], in experiment [2], in experiment [3], in experiment [4], in experiment [5] and in experiment [6] was greater than 100 µM in each case. The TGI in experiment [7], in experiment [8], in experiment [9] and in experiment [10] was greater than 100 µM throughout.

Take `O=C(/C=C/c1cccs1)c1cccc(C(=O)/C=C/c2cccs2)n1`: the TGI in experiment [1] is greater than 100 µM; in experiment [2], greater than 100 µM; in experiment [3], greater than 100 µM; in experiment [4], greater than 100 µM; in experiment [5] it was greater than 100 µM; in [6], greater than 90.6 µM. Further, the TGI in experiment [7] was greater than 100 µM; in experiment [8], greater than 75.8 µM; in [9] it was greater than 100 µM; in experiment [10], greater than 100 µM.

Regarding `Clc1ccc2c(NCCNc3ccnc4cc(Cl)ccc34)ccnc2c1`, the TGI in experiment [1] turned out to be 30.1 µM; in experiment [2], 36.8 µM; in experiment [3] it was 32.3 µM; in experiment [4], 50.3 µM; in experiment [5], 34.5 µM; in experiment [6] it was 33.2 µM. Moreover, the TGI was determined as 28.3 µM in experiment [7], 32.1 µM in experiment [8], 36 µM in experiment [9] and 62.5 µM in experiment [10].

In the case of `CC(C)CC1[C@@H](OCc2ccccc2)COS(=O)(=O)N1Cc1ccccc1` (stereo partly drawn), the TGI in experiment [1] was greater than 100 µM; in experiment [2] it was greater than 100 µM; in [3] it was greater than 100 µM; in [4], greater than 100 µM; in [5] it was greater than 100 µM; in experiment [6] it was 75.2 µM. Also, the TGI in experiment [7], in experiment [8], in [9] and in experiment [10] was greater than 100 µM in each case.

Consider `CCOC(=O)COc1c(OC)cc(C2C3=C(COC3=O)Oc3cc4c(cc32)OCO4)cc1OC` (stereo not drawn), for which the TGI in experiment [1] is 4.88 µM; in [2], 98.1 µM; in experiment [3], greater than 100 µM; in experiment [4], greater than 100 µM; in experiment [5] it was greater than 100 µM; in experiment [6] it was 14.2 µM. For the same molecule, the TGI in [7] is 78.4 µM; in experiment [8] it was 81.9 µM; in experiment [9], greater than 100 µM; in experiment [10] it was greater than 100 µM.

Regarding `COc1ccc(N=C2C(=Nc3ccc(OC)cc3)N(S(=O)(=O)c3ccccc3)C(=S)N2c2ccc(OC)cc2)cc1`, the TGI in experiment [1] was greater than 100 µM; in experiment [2] it was greater than 100 µM; in experiment [4], 38.8 µM; in experiment [5], greater than 100 µM; in [6], greater than 100 µM; in experiment [7], greater than 100 µM. In addition, the TGI in [8], in experiment [9] and in [10] was greater than 100 µM in each case.

In the case of `O=C1OC(C2OC(=O)c3cc(O)c(O)c(O)c3-c3c(O)c(O)c4oc(=O)c5c(c(O)c(O)c6oc(=O)c3c4c65)-c3c(cc(O)c(O)c3O)C(=O)OCC2O)C2OC(=O)c3c(c(O)c(O)c(O)c3[C@H]2O)-c2c1cc(O)c(O)c2O` (stereo partly drawn), the TGI is 36.6 µM in experiment [1]; greater than 100 µM in experiment [2]; greater than 100 µM in [3]; 63.7 µM in experiment [4]; greater than 100 µM in experiment [5]; 41.2 µM in experiment [6]. The TGI was 67.5 µM in experiment [7], 57.6 µM in experiment [8], 21.5 µM in experiment [9] and 44.2 µM in experiment [10].

On to `Nn1c(SCC(=O)NCc2ccccc2)nc2ccccc2c1=O`, for which the TGI in [1], in experiment [2], in [3], in [4], in experiment [5] and in experiment [6] was greater than 100 µM in each case. For the same molecule, the TGI in experiment [7], in experiment [8], in [9] and in experiment [10] was greater than 100 µM throughout.

As to `CN(C)CCNC(=O)c1ccc(NCCCN(C)CCCNc2ccc(C(=O)NCCN(C)C)c3[nH]c4ccc([N+](=O)[O-])cc4c(=O)c23)c2c(=O)c3cc([N+](=O)[O-])ccc3[nH]c12`, the TGI in experiment [1] came to 0.502 µM; in experiment [2], 2.64 µM; in experiment [3], 1.62 µM; in experiment [4], 1.21 µM; in [5] it was 0.535 µM; in [6] it was 0.537 µM. In addition, the TGI turned out to be 1.94 µM in [7], 0.162 µM in experiment [8] and 0.655 µM in [9].

As for `COc1ccc(C2SCC(=O)N2NC(=O)C(C)Oc2ccccc2Cl)cc1` (stereo not drawn), the TGI in experiment [1] was 64.4 µM; in [2] it was greater than 100 µM; in experiment [3], greater than 100 µM; in experiment [4] it was greater than 100 µM; in experiment [5], greater than 100 µM; in experiment [6] it was greater than 100 µM. For the same molecule, the TGI in [8], in experiment [9] and in [10] was greater than 100 µM each time.

For `COc1ccc2c(c1)CCCN1CCc3cc(OC)c(OC)cc3C21` (stereo not drawn), the TGI in [1] was greater than 100 µM; in [2], 43.2 µM; in [3] it was greater than 100 µM; in experiment [4] it was greater than 100 µM; in experiment [5], greater than 100 µM; in experiment [7], greater than 100 µM. Further, the TGI in [8], in [9] and in experiment [10] was greater than 100 µM each time.

As for `CCc1n[nH]c(=O)n1NC(=O)c1ccccc1C(=O)O`, the TGI in experiment [1], in experiment [2], in experiment [3], in [4], in experiment [5] and in experiment [6] was greater than 100 µM each time. Moreover, the TGI in experiment [7], in experiment [8] and in experiment [9] was greater than 100 µM each time.

On to `C/C(=N\O)c1cccc(Nc2nc3ccccc3c3occc23)c1`, for which the TGI was 26.4 µM in experiment [1]; 26.9 µM in experiment [2]; 2.59 µM in experiment [3]; 32.3 µM in experiment [4]; 25.8 µM in experiment [5]; 31.8 µM in experiment [7]. In addition, the values for the TGI in [8], in [9] and in experiment [10] were greater than 100 µM, 37.1 µM and 16.5 µM, respectively.

For `CC(C)(C)OC(=O)NC(Cc1ccc(OCc2ccccc2)cn1)C(=O)N1CCSCC1` (stereo not drawn), the TGI in experiment [1] was 33.1 µM; in experiment [2], 71.7 µM; in [3] it was 82.5 µM; in [4], 76.5 µM; in experiment [5], 98.9 µM; in experiment [6], greater than 100 µM. Also, the TGI in [7], in experiment [8] and in experiment [9] was greater than 100 µM throughout.
